Results from patent US7524964B2, “Tetrahydrothiopyrano pyrazole cannabinoid modulators” (Janssen Pharmaceutica NV, priority 2005, dated 2009).
Where two headings read alike, the source gives them in different places.

What was measured:
human CB-2 receptor = target: T1, human CB-2 receptor (Homo sapiens, UniProt P34972); assay: Binding assay, cannabinoid CB2 receptor ([3H]-CP-55,940 displacement); settings: read-out: CB2 binding percent inhibition; for inhibition at 1 µM: test concentration 1 μM (superscript b)
T1 construct: expressed in transfected cells; host or cells: SK-N-MC cells, pcDNA3 CB-2 (human), semi-purified membranes
T1 sequence (P34972 whole entry): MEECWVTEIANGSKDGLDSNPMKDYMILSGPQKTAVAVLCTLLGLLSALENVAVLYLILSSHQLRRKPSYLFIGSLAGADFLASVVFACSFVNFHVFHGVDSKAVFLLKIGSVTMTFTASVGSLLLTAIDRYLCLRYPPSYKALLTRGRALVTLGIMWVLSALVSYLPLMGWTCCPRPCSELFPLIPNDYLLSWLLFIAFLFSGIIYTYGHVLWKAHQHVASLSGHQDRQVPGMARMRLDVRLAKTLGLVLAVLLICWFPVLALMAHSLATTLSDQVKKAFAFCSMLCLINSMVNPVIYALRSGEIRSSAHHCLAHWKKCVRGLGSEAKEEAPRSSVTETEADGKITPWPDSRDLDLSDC
Procedure: (§1) Binding Assay for CB1 or CB2 Agonists or Inverse Agonists
(§2) The human CB-1 and CB-2 receptors were stably expressed in SK-N-MC cells transfected with pcDNA3 CB-1 (human) or pcDNA3 CB-2 (human). The cells were grown in T-180 cell culture flasks under standard cell culture conditions at 37° C. in a 5% CO2 atmosphere. The cells were harvested by trypsinization and homogenized in a homogenization buffer (10 mM Tris, 0.2 mM MgCl2, 5 mM KCl, with protease inhibitors aprotinin, leupeptin, pepstatin A and bacitracin) and centrifuged (2000 g). The supernatant was then centrifuged in 2M sucrose (31,300 g) to produce a semi-purified membrane pellet. The pellet was resuspended in homogenization and store at −80° C.
(§3) On the day of the assay, the pellet was thawed on ice and diluted in assay buffer (50 mM Tris-HCl, 5 mM MgCl2, 2.5 mM EDTA, 0.5 mg/mL fatty acid free bovine serum albumin, pH 7.5). The diluted membrane was added with buffer, test compound or standard and the radioligand [H]^3+-CP-55,940_(0.2 nM) to the wells of a 96-well polypropylene plate. Non-specific binding was measured in wells containing 10 uM WIN 55,212. The plate was covered and incubated for 90 minutes at 30° C. The contents were then aspirated onto a Packard Unifilter G/C filter bottom plate prewet with 0.5% polyethyleneimine. The wells of the polypropylene plate were rinsed and aspirated seven times with a 0.9% saline-0.5% Tween 20 solution. The Unifilter plate was dried, a scintillation cocktail was added to each well and the counts representing binding were quantitated in a TopCount scintillation counter.
(§4) The IC50 binding values for compounds tested were calculated by linear regression and were obtained from studies in which varying compound concentrations were used. Where an IC50 was not obtained, test results are provided as percent inhibition at a test concentration of ^a0.2 μM, ^b1 μM or ^c10 μM.

human CB1 receptor = human CB1 receptor (Homo sapiens, UniProt P21554); assay: Binding assay, cannabinoid CB1 receptor ([3H]-CP-55,940 displacement); set-up: expressed in transfected cells; host or cells: SK-N-MC cells, pcDNA3 CB-1 (human), semi-purified membranes; settings: for inhibition at 0.2 µM: test concentration 0.2 μM (superscript a); for inhibition at 1 µM: test concentration 1 μM (superscript b)
Sequence of human CB1 receptor (P21554 whole entry): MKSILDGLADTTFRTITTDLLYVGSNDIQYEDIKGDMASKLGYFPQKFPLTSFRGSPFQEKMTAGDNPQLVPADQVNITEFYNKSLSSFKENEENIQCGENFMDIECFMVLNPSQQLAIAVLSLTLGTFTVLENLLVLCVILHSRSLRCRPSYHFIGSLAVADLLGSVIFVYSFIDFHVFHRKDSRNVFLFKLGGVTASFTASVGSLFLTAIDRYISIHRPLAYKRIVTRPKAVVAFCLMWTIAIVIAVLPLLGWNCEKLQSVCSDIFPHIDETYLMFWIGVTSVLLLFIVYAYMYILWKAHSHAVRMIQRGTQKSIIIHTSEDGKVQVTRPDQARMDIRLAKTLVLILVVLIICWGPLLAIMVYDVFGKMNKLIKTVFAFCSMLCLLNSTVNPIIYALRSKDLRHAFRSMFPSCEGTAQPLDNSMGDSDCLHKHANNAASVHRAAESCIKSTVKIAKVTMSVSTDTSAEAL
Procedure: as §1, §2, §3, §4

[1] = test concentration 0.2 μM (superscript a)
[2] = read-out: CB1 binding percent inhibition

Row | Compound | inhibition at 0.2 µM (human CB-2 receptor; [1]) [%] | inhibition at 0.2 µM (human CB1 receptor; [2]) [%] | also measured
1 | O=C(NN1CCCCC1)c1nn(-c2ccc(F)cc2F)c2c1CS(=O)(=O)C/C2=C\c1ccc(F)cc1 [Cpd 106, (7Z)-1-(2,4-difluoro-phenyl)-7-(4-fluoro-benzylidene)-5,5-dioxo-4,5,6,7-tetrahydro-1H-5λ^6-thiopyrano[4,3-c]pyrazole-3-carboxylic acid piperidin-1-ylamide] | 6 | 32 | 
2 | C[C@@H](NS(=O)(=O)/C=C/c1c2c(nn1Cc1ccccc1)CCSC2)C1CCCCC1 [Cpd 6, (E)-2-(2-benzyl-2,4,6,7-tetrahydro-thiopyrano[4,3-c]pyrazol-3-yl)-ethenesulfonic acid [(1R)-1-cyclohexyl-ethyl]-amide] |  |  | inhibition at 1 µM (human CB-2 receptor): 0%; inhibition at 1 µM (human CB1 receptor; [2]): 16%
3 | O=C(N[C@H]1c2ccccc2C[C@H]1O)c1nn(-c2ccc(Cl)cc2Cl)c2c1CSC/C2=C\c1ccc(F)cc1 [Cpd 59, (7Z)-1-(2,4-dichloro-phenyl)-7-(4-fluoro-benzylidene)-1,4,6,7-tetrahydro-thiopyrano[4,3-c]pyrazole-3-carboxylic acid [(1S,2R)-2-hydroxy-indan-1-yl]-amide] |  |  | inhibition at 0.2 µM (human CB-2 receptor): 25%; IC50 (human CB1 receptor): 0.042 µM
4 | C[C@H](NS(=O)(=O)/C=C/c1c2c(nn1Cc1ccccc1)CCSC2)C1CCCCC1 [Cpd 8] |  |  | inhibition at 1 µM (human CB-2 receptor): 5%; inhibition at 1 µM (human CB1 receptor; [2]): 8%
5 | C[C@@H](NC(=O)c1c2c(nn1-c1ccc(Cl)cc1Cl)/C(=C/c1ccc(F)cc1)CSC2)C1CCCCC1 [Cpd 89, (7Z)-2-(2,4-dichloro-phenyl)-7-(4-fluoro-benzylidene)-2,4,6,7-tetrahydro-thiopyrano[4,3-c]pyrazole-3-carboxylic acid [(1R)-1-cyclohexyl-ethyl]-amide] | 10 |  | IC50 (human CB1 receptor): 0.074 µM
6 | O=C(NCc1ccccn1)c1nn(-c2ccc(Cl)cc2Cl)c2c1C[S+]([O-])C/C2=C\c1ccc(F)cc1 (centres unmarked) [Cpd 80, (7Z)-1-(2,4-dichloro-phenyl)-7-(4-fluoro-benzylidene)-5-oxo-4,5,6,7-tetrahydro-1H-5λ^4-thiopyrano[4,3-c]pyrazole-3-carboxylic acid (pyridin-2-ylmethyl)-amide] | 2 | 21 | 
7 | O=C(NN1CC2CCCC2C1)c1nn(-c2ccc(Cl)cc2)c2c1CSC/C2=C\c1ccc(F)cc1 (centres unmarked) [Cpd 103, (7Z)-1-(4-chloro-phenyl)-7-(4-fluoro-benzylidene)-1,4,6,7-tetrahydro-thiopyrano[4,3-c]pyrazole-3-carboxylic acid (hexahydro-cyclopenta[c]pyrrol-2-yl)-amide] | 5 | 62 | 
8 | O=C(N[C@@H]1CCC[C@H]1O)c1nn(-c2ccc(Cl)cc2Cl)c2c1CS(=O)(=O)C/C2=C\c1ccc(F)cc1 [Cpd 67, (7Z)-1-(2,4-dichloro-phenyl)-7-(4-fluoro-benzylidene)-5,5-dioxo-4,5,6,7-tetrahydro-1H-5λ^6-thiopyrano[4,3-c]pyrazole-3-carboxylic acid [(1R,2R)-2-hydroxy-cyclopentyl]-amide] | 15 | 46 | 
9 | O=C(NN1CCCCC1)c1nn(-c2ccc(Cl)cc2Cl)c2c1CSC/C2=C\c1ccc(F)cc1 [Cpd 54, (7Z)-1-(2,4-dichloro-phenyl)-7-(4-fluoro-benzylidene)-1,4,6,7-tetrahydro-thiopyrano[4,3-c]pyrazole-3-carboxylic acid piperidin-1-ylamide] | 25 |  | IC50 (human CB1 receptor): 0.034 µM
10 | COC[C@H]1CCCN1NC(=O)c1nn(-c2ccc(Cl)cc2Cl)c2c1CSC/C2=C\c1ccc(F)cc1 [Cpd 122, (7Z)-1-(2,4-dichloro-phenyl)-7-(4-fluoro-benzylidene)-1,4,6,7-tetrahydro-thiopyrano[4,3-c]pyrazole-3-carboxylic acid [(2R)-2-(methoxymethyl)-pyrrolidin-1-yl]-amide] | 18 |  | IC50 (human CB1 receptor): 0.006 µM
11 | O=C(NN1CC2CCCC2C1)c1nn(-c2ccc(Cl)cc2Cl)c2c1CS(=O)(=O)C/C2=C\c1ccc(Cl)o1 (centres unmarked) [Cpd 121, (7Z)-7-(5-chloro-furan-2-ylmethylene)-1-(2,4-dichloro-phenyl)-5,5-dioxo-4,5,6,7-tetrahydro-1H-5λ^6-thiopyrano[4,3-c]pyrazole-3-carboxylic acid (hexahydro-cyclopenta[c]pyrrol-2-yl)-amide] | 15 |  | IC50 (human CB1 receptor): 0.048 µM
12 | COC[C@H]1CCCN1NC(=O)c1nn(-c2ccc(Cl)cc2Cl)c2c1CS(=O)(=O)C/C2=C\c1ccc(F)cc1 [Cpd 126, (7Z)-1-(2,4-dichloro-phenyl)-7-(4-fluoro-benzylidene)-5,5-dioxo-4,5,6,7-tetrahydro-1H-5λ^6-thiopyrano[4,3-c]pyrazole-3-carboxylic acid [(2R)-2-(methoxymethyl)-pyrrolidin-1-yl]-amide] | 0 | 55 | 
13 | O=S(=O)(/C=C/c1nn(-c2ccc(F)cc2F)c2c1CSCC2Cc1cccc(F)c1)NN1CCCCC1 (centres unmarked) [Cpd 40, (E)-2-[1-(2,4-difluoro-phenyl)-7-(3-fluoro-benzyl)-1,4,6,7-tetrahydro-thiopyrano[4,3-c]pyrazol-3-yl]-ethenesulfonic acid piperidin-1-ylamide] | 10 | 12 | 
14 | O=C(NCc1ccccn1)c1nn(-c2ccc(Cl)cc2Cl)c2c1CS(=O)(=O)C/C2=C\c1ccc(F)cc1 [Cpd 73, (7Z)-1-(2,4-dichloro-phenyl)-7-(4-fluoro-benzylidene)-5,5-dioxo-4,5,6,7-tetrahydro-1H-5λ^6-thiopyrano[4,3-c]pyrazole-3-carboxylic acid (pyridin-2-ylmethyl)-amide] | 13 | 56 | 
15 | C[C@@H](NS(=O)(=O)/C=C/c1nn(Cc2ccccc2)c2c1CSCC2)c1ccccc1 [Cpd 7, (E)-2-(1-benzyl-1,4,6,7-tetrahydro-thiopyrano[4,3-c]pyrazol-3-yl)-ethenesulfonic acid [(1R)-1-phenyl-ethyl]-amide] |  |  | inhibition at 1 µM (human CB-2 receptor): 44%; inhibition at 1 µM (human CB1 receptor; [2]): 15%
16 | C[C@H](NC(=O)/C=C/c1nn(Cc2ccccc2)c2c1C[S+]([O-])CC2)c1ccccc1 (stereo partly drawn) [Cpd 34, (2E)-3-(1-benzyl-5-oxo-4,5,6,7-tetrahydro-1H-5λ^4-thiopyrano[4,3-c]pyrazol-3-yl)-N-[(1S)-1-phenyl-ethyl]-acrylamide] |  |  | inhibition at 10 µM (human CB-2 receptor; test concentration 10 μM (superscript c)): 21%; inhibition at 10 µM (human CB1 receptor; test concentration 10 μM (superscript c), read-out: CB1 binding percent inhibition): 11%
17 | CCOC(=O)[C@@H]1C2CCC(C2)[C@@H]1NC(=O)c1nn(-c2ccc(F)cc2F)c2c1CS(=O)(=O)C[C@@H]2Cc1cccc(F)c1 (stereo partly drawn) [Cpd 49, (2R,3S)-3-{[1-(2,4-difluoro-phenyl)-(7R)-(3-fluoro-benzyl)-5,5-dioxo-4,5,6,7-tetrahydro-1H-5λ^6-thiopyrano[4,3-c]pyrazole-3-carbonyl]-amino}-bicyclo[2.2.1]heptane-2-carboxylic acid ethyl ester] | 6 | 33 | 
18 | O=C(NN1CCCC1)c1nn(-c2ccc(Cl)cc2)c2c1CSC/C2=C\c1ccc(F)cc1 [Cpd 102, (7Z)-1-(4-chloro-phenyl)-7-(4-fluoro-benzylidene)-1,4,6,7-tetrahydro-thiopyrano[4,3-c]pyrazole-3-carboxylic acid pyrrolidin-1-ylamide] | 23 | 76 | 
19 | C[C@H](NS(=O)(=O)/C=C/c1c2c(nn1Cc1ccccc1)CCS(=O)(=O)C2)C1CCCCC1 [Cpd 17, (E)-2-(2-benzyl-5,5-dioxo-4,5,6,7-tetrahydro-2H-5λ^6-thiopyrano[4,3-c]pyrazol-3-yl)-ethenesulfonic acid [(1S)-1-cyclohexyl-ethyl]-amide] |  |  | inhibition at 1 µM (human CB-2 receptor): 24%; inhibition at 1 µM (human CB1 receptor; [2]): 0%
